Test results as given in patent US11878975B2, “Substituted indole compounds useful as TLR inhibitors” (BRISTOL-MYERS SQUIBB COMPANY, priority 2017, dated 2024).

Experiments:
Assay type in all cases: cell-based
human TLR9 = biological target: T1, human TLR9 (Homo sapiens, UniProt Q9NR96); assay: TLR9 inhibition reporter assay (HEK-Blue cells, SEAP reporter, ODN2006 stimulation); settings: HEK-Blue cells overexpressing human TLR9, SEAP reporter, ODN2006 5 nM
T1 construct: host or cells: HEK-Blue cells
T1 sequence (Q9NR96 26-1032): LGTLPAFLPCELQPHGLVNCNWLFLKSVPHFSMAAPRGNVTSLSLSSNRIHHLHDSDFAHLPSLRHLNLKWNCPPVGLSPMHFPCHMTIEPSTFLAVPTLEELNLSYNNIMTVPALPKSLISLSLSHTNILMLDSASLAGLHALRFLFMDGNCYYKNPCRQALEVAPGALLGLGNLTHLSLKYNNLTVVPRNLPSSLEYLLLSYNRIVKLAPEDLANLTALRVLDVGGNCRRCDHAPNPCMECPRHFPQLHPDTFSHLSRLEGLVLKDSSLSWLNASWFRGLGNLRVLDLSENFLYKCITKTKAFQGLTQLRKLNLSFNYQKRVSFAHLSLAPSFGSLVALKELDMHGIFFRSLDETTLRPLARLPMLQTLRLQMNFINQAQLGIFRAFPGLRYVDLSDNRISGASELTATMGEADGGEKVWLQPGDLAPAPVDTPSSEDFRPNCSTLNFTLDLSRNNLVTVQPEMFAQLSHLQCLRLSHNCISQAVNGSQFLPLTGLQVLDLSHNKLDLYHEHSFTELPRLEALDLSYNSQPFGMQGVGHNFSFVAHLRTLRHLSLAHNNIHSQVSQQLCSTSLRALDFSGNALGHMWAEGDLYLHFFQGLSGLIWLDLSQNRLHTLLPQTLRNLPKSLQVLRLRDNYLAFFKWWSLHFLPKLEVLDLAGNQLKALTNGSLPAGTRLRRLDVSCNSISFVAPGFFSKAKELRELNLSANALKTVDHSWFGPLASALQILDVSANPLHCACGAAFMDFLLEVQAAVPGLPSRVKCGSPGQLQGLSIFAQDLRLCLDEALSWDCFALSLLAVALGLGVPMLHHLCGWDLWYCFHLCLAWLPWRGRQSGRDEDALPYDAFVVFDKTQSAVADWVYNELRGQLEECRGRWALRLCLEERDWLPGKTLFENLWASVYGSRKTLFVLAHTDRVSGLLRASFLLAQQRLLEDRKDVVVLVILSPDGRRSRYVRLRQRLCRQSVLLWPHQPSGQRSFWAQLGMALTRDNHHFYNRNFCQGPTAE
How it was run: (§1)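 Ligand levels: TLR7 gardiquimod 7.5 μM, TLR8 R848 15.9 μM, TLR9 ODN2006 5 nM, added after 30 min room-temperature compound pre-incubation at 0.05 nM-50 μM. Reporter SEAP read with HEK-Blue Detection reagent after 22 h, 37° C. Inhibition expressed as % reduction relative to agonist-plus-DMSO and known-inhibitor controls.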

human TLR7 = biological target: T2, human TLR7 (Homo sapiens, UniProt Q9NYK1); assay: TLR7 inhibition reporter assay (HEK-Blue cells, SEAP reporter, gardiquimod stimulation); settings: HEK-Blue cells overexpressing human TLR7, SEAP reporter, gardiquimod 7.5 μM
T2 construct: host or cells: HEK-Blue cells
T2 sequence (Q9NYK1 27-1049): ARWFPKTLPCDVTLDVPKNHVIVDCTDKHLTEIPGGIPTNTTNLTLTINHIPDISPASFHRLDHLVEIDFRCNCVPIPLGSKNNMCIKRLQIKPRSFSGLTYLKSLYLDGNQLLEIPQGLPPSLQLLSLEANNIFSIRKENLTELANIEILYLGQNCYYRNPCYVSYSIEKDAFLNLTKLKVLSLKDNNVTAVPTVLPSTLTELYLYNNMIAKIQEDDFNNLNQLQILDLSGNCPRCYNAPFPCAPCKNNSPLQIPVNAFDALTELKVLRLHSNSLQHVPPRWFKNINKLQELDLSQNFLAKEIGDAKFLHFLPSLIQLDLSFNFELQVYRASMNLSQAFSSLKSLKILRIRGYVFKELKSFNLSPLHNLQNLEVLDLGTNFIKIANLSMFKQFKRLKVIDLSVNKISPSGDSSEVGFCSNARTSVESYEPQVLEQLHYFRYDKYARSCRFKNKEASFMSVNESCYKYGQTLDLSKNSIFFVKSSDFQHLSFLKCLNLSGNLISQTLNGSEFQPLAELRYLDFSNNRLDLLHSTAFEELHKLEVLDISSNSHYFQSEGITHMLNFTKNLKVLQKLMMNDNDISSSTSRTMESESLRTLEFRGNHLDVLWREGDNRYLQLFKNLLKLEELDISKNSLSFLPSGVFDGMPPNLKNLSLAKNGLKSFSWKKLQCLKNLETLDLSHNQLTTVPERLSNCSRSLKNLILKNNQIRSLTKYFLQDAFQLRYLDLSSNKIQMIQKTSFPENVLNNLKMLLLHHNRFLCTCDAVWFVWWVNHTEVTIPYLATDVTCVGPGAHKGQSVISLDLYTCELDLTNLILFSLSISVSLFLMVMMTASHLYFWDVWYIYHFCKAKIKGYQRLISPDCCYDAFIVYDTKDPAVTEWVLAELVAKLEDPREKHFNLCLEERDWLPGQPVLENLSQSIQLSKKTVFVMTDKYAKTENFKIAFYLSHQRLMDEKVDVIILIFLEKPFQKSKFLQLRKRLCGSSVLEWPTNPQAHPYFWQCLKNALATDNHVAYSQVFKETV
How it was run: as §1

human TLR8 = biological target: T3, human TLR8 (Homo sapiens, UniProt Q9NR97); assay: TLR8 inhibition reporter assay (HEK-Blue cells, SEAP reporter, R848 stimulation); settings: HEK-Blue cells overexpressing human TLR8, SEAP reporter, R848 15.9 μM
T3 construct: host or cells: HEK-Blue cells
T3 sequence (Q9NR97 27-1041): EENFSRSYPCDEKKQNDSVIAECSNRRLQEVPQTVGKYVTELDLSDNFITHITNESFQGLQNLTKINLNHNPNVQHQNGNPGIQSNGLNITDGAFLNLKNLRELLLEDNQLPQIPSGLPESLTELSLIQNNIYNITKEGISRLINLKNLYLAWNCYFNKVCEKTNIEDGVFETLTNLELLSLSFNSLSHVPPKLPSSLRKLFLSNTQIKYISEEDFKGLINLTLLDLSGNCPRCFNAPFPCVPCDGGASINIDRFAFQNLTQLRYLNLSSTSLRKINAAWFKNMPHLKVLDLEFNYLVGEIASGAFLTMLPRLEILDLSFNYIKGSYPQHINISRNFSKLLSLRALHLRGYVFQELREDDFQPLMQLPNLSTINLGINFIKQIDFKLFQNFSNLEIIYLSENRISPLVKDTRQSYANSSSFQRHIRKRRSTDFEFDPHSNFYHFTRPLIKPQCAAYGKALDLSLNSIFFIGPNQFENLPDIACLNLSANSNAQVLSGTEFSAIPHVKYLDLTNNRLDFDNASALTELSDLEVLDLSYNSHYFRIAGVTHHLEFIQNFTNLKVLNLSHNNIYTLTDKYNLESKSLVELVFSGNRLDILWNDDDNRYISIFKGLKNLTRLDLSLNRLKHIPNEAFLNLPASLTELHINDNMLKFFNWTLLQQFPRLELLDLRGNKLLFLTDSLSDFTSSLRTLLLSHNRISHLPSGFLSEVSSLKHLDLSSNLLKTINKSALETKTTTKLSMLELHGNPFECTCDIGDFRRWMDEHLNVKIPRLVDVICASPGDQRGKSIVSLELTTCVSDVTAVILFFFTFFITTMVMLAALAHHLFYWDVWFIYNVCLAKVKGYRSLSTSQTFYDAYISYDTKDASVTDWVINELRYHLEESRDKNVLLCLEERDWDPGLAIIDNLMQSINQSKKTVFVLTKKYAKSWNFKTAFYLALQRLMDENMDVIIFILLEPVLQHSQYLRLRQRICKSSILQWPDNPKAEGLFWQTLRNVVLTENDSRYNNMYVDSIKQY
How it was run: as §1

Cc1c(-c2[nH]c3ccc(C4CNCCO4)cc3c2C(C)C)cn2ncnc2c1C (stereo not drawn) [Example 286]
IC50 (human TLR9): 5390 nM | IC50 (human TLR7): 1 nM | IC50 (human TLR8): 0.73 nM

Cc1c(-c2[nH]c3ccc(C4CN(CC(=O)N(C)C)C4)cc3c2C(C)C)cn2ncnc2c1C [Example 556]
IC50 (human TLR9): 5120 nM | IC50 (human TLR7): 6 nM | IC50 (human TLR8): 4.9 nM

COc1cc(-c2[nH]c3ccc(C4CCC(N5CC6(COC6)C5)CC4)cc3c2C(C)C)cn2ncnc12 (stereo not drawn) [Example 96]
IC50 (human TLR9): 1740 nM | IC50 (human TLR7): 2 nM | IC50 (human TLR8): 3.3 nM

COc1cc(-c2[nH]c3ccc(C4CCC(NC5(C)CC5)CC4)cc3c2C(C)C)cn2ncnc12 (stereo not drawn) [Example 42]
IC50 (human TLR9): 2610 nM | IC50 (human TLR7): 0.2 nM | IC50 (human TLR8): 1 nM

Cc1cc(-c2[nH]c3ccc(C4CCCNC4)cc3c2C(C)C)ccn1 (stereo not drawn) [Example 184]
IC50 (human TLR9): 866 nM | IC50 (human TLR7): 12 nM | IC50 (human TLR8): 3.8 nM

COc1cc(-c2[nH]c3ccc(C4CCC(N5CCNC(=O)C5)CC4)cc3c2C(C)C)cn2ncnc12 (stereo not drawn) [Example 71]
IC50 (human TLR9): 4410 nM | IC50 (human TLR7): 0.68 nM | IC50 (human TLR8): 2.7 nM

Cc1c(-c2[nH]c3ccc(C4CCC(NC5COC5)CC4)cc3c2C(C)C)cn2cnnc2c1C (stereo not drawn) [Example 524]
IC50 (human TLR9): 11100 nM | IC50 (human TLR7): 12 nM | IC50 (human TLR8): 21 nM

Cc1cc(-c2[nH]c3ccc(C4CCC(N(C)C)CC4)cc3c2C(C)C)cc(C)n1 (single isomer, unassigned) [Example 114]
IC50 (human TLR9): 515 nM | IC50 (human TLR7): 4 nM | IC50 (human TLR8): 20 nM

Cc1cc(-c2[nH]c3ccc(C4CCC(N)CC4)cc3c2C(C)C)cc(C)n1 (stereo not drawn) [Example 5]
IC50 (human TLR9): 597 nM | IC50 (human TLR7): 1 nM | IC50 (human TLR8): 14 nM

COc1ccc(-c2[nH]c3ccc(C4CCC5CC(C4)N5)cc3c2C(C)C)cc1OC (stereo not drawn) [Example 279, 3-(2-(3.4-dimethoxyphenyl)-3-isopropyl-1H-indol-5-yl)-7-azabicyclo[4.1.1]octane]
IC50 (human TLR9): 3130 nM | IC50 (human TLR7): 37 nM | IC50 (human TLR8): 73 nM

COc1ccc(-c2[nH]c3ccc(C4CCC(N)CC4)cc3c2C(C)C)cc1OC (stereo not drawn) [Example 450]
IC50 (human TLR9): 2200 nM | IC50 (human TLR7): 8 nM | IC50 (human TLR8): 11 nM

COc1cc(-c2[nH]c3ccc(C4CCCN(C(=O)CN(C)C)C4)cc3c2C(C)C)cn2ncnc12 (stereo not drawn) [Example 191]
IC50 (human TLR9): 1870 nM | IC50 (human TLR7): 0.34 nM | IC50 (human TLR8): 2.6 nM

Cc1cc(-c2[nH]c3ccc(C4CCC(OC5CCNCC5)CC4)cc3c2C(C)C)ccn1 (stereo not drawn) [Example 503]
IC50 (human TLR9): 2860 nM | IC50 (human TLR7): 28 nM | IC50 (human TLR8): 44 nM

Cc1cc(-c2[nH]c3ccc(CCN4CCCC(F)C4)cc3c2C(C)C)cn(C)c1=O (stereo not drawn) [Example 406]
IC50 (human TLR9): 8810 nM | IC50 (human TLR7): 14 nM | IC50 (human TLR8): 3.2 nM

CC(C)c1c(-c2ccnc3[nH]ncc23)[nH]c2ccc(CC3CCNCC3)cc12 [Example 424]
IC50 (human TLR9): 2100 nM | IC50 (human TLR7): 24 nM | IC50 (human TLR8): 2.9 nM

CC(C)c1c(-c2ccnc3[nH]ncc23)[nH]c2ccc(C3CCC(OC4CCNCC4)CC3)cc12 (stereo not drawn) [Example 502]
IC50 (human TLR9): 313 nM | IC50 (human TLR7): 71 nM | IC50 (human TLR8): 23 nM

Cc1c(-c2[nH]c3ccc(C4CCC(NC5COC5)CC4)cc3c2C(C)C)cn(C)c(=O)c1C (stereo not drawn) [Example 478]
IC50 (human TLR9): 10200 nM | IC50 (human TLR7): 20 nM | IC50 (human TLR8): 7.6 nM

COc1cc(-c2[nH]c3ccc(C4CCC(N(C)C(C)C)C4)cc3c2C(C)C)cn2ncnc12 (single isomer, unassigned) [Example 277, N-isopropyl-3-(3-isopropyl-2-(8-methoxy-[1,2,4]triazolo[1,5-a]pyridin-6-yl)-1H-indol-5-yl)-N-methylcyclopentan-1-amine]
IC50 (human TLR9): 801 nM | IC50 (human TLR7): 2 nM | IC50 (human TLR8): 4.4 nM

Cc1c(-c2[nH]c3ccc(C4CC(N)C4)cc3c2C(C)C)cn(C)c(=O)c1C (stereo not drawn) [Example 492]
IC50 (human TLR9): 6070 nM | IC50 (human TLR7): 4 nM | IC50 (human TLR8): 1.6 nM

CNCCN1CCCC(c2ccc3[nH]c(-c4ccc(OC)c(OC)c4)c(C(C)C)c3c2)C1 (stereo not drawn) [Example 254, 2-(3-(2-(3,4-dimethoxyphenyl)-3-isopropyl-1H-indol-5-yl)piperidin-1-yl)-N-methylethanamine]
IC50 (human TLR9): 742 nM | IC50 (human TLR7): 107 nM | IC50 (human TLR8): 16 nM

Cc1c(-c2[nH]c3ccc(C4CN(CC(C)(C)O)C4)cc3c2C(C)C)cn2ncnc2c1C [Example 557]
IC50 (human TLR9): 6750 nM | IC50 (human TLR7): 9 nM | IC50 (human TLR8): 3.6 nM

CCN(C)C1CCC(c2ccc3[nH]c(-c4cc(OC)c5ncnn5c4)c(C(C)C)c3c2)CC1 (single isomer, unassigned) [Example 66]
IC50 (human TLR9): 1170 nM | IC50 (human TLR7): 0.85 nM | IC50 (human TLR8): 4.4 nM

CNC(=O)CN1CCOC(c2ccc3[nH]c(-c4cn5ncnc5c(C)c4C)c(C(C)C)c3c2)C1 (stereo not drawn) [Example 313]
IC50 (human TLR9): > 50000 nM | IC50 (human TLR7): 25 nM | IC50 (human TLR8): 60 nM

CNC1CCC(c2ccc3[nH]c(-c4cc(C)c5ncnn5c4)c(C(C)C)c3c2)CC1 (single isomer, unassigned) [Example 56]
IC50 (human TLR9): 1370 nM | IC50 (human TLR7): 0.17 nM | IC50 (human TLR8): 0.81 nM

Cc1c(-c2[nH]c3ccc(C4CN(CC5(C)COC5)C4)cc3c2C(C)C)cn2cnnc2c1C [Example 536]
IC50 (human TLR9): 11000 nM | IC50 (human TLR7): 26 nM | IC50 (human TLR8): 21 nM
